Results on 66 compounds are retold here after the OPERA property sets (Mansouri et al. 2018).

By logP is commonly meant the decadic logarithm of the partition coefficient of the neutral form, usually between octanol and water. Low readings indicate a more hydrophilic compound, high ones a more lipophilic compound. A word on the solubility: it is how much of the substance goes into solution per volume.

≈ marks a conversion by molar mass, not a printed value.

Details in the first series: not given
With `COc1c(Cl)ccc(Cl)c1Cl`, the lipophilicity (logP) was 3.64. Still for that read-out and setting: with `c1ccc2cc3c(ccc4ccccc43)cc2c1` the figure was 5.76; with `CC(=O)NCCc1ccccc1`, 1.19. On the same count and under the same terms, as for `O=C(O)CCOc1cccc2ccccc12`, the figure is 3.

`COc1ccc2sc(C(=O)Nc3nnn[nH]3)c(OC(C)C)c2c1` showed a logP of 1.78.

The compound `CC(C)Nc1nc(Cl)nc(NCCO)n1` yielded a logP of 0.78.

The compound `c1ccc2nc3ccc4ccccc4c3cc2c1` came in with a logP of 4.48. On the same count and under the same terms, as for `Cn1c(CC(=O)O)cnc1C(=O)c1ccc([N+](=O)[O-])cc1`, the figure is 0.86; as for `Oc1ncnc2[nH]ncc12`, -0.55; as for `C=C(C)C(N)=O`, -1.11.

`CCCCCCCCCCCCCCCCCCCCCC(=O)O` gave a solubility of 4.7e-05 mM (≈ 0.016 µg/mL). In turn, `C=CC(=O)NCCc1cnc[nH]1` had a logP of -0.21. Consider `CC(C)CC=O`, for which the solubility stood at 163 mM (≈ 14000 µg/mL). `c1ccc2cc3c(cc2c1)-c1cccc2cccc-3c12` had a logP of 6.11. On the same count and under the same terms, with `Cc1cc(Cc2cc(Cl)ccc2Cl)c(Cl)cc1Cl` the figure was 7.53; with `CCCCCCOCCOCCO`, 1.7.

The compound `Cc1ccccc1C1=CCN(C)CC1` registered a logP of 3.1. Still for that read-out and setting: as for `N#Cc1cc(-c2ccncc2)cnc1N1CCCC1`, the figure is 2.95.

On to `CCOC(=O)CCC(=O)OCC`, for which the logP came to 1.2. The same measure, in the same setting: as for `N#CCCN(N)c1nc2ccccc2o1`, the figure is 0.9; as for `Clc1cc2c(cc1Cl)-c1cc(Cl)c(Cl)cc1-2`, 6.14; as for `COCCNCc1cc2cc(S(N)(=O)=O)sc2s1`, 0.32. Still for that read-out and setting: with `CCCCNC(=S)NCCCC` the figure was 2.75; with `O=[N+]([O-])c1ccc2c(c1)NCC2`, 1.92. Same read-out and setting: as for `CCOC(=O)CCn1nnc2ccccc21`, the figure is 1.6; as for `CCCCCCCC(=O)[O-].[Na+]`, -1.38; as for `CCCCCOC(C)=O`, 2.3. Consider `[N-]=[N+]=CC(=O)OC[C@H](N)C(=O)O`, for which the logP is -2. In the case of `O=C(OCc1ccccc1)c1cccnc1`, the lipophilicity (logP) came out at 2.4.

`COc1cccc(Nc2ccccc2C(=O)O)c1` had a logP of 4.31. The compound `CCCCCCCCCCCCOC(=O)c1ccc(N)cc1` had a solubility of 1.58e-05 mM (≈ 0.00484 µg/mL). Compound `CCCCCCN1CC(C(=O)OC)CC1=O` (centres undefined) came in with a log partition coefficient (logP) of 2.3.

With `NC(=O)CC[C@H](N)C(=O)O`, the logP was -3.64.

`CS(=O)CCCOc1ccc([N+](=O)[O-])cc1` (centres undefined): the logP stood at 0.93. Take `COC(=O)C(C)=CC1C(C(=O)OC)C1(C)C` (centres undefined): the log partition coefficient (logP) turned out to be 2.67. Still for that read-out and setting: with `CSc1nc(N=[N+]=[N-])nc(NC(C)C)n1` the figure was 3; with `CCN(CC)CCNC(=O)c1ccc(N)c(Cl)c1`, 1.7. On the same count and under the same terms, as for `CCOCCOCCO`, the figure is -0.54; as for `CCN1CCC(CNC(=O)c2cc(S(=O)(=O)CC)ccc2OC)C1` (centres undefined), 1.31. Still for that read-out and setting: as for `Nc1ccc2[nH]ncc2c1`, the figure is 0.65.

As to `COc1ccc(Cn2cncn2)cc1`, the logP came out at 1.1. On the same count and under the same terms, with `COc1ccc(N)c(S(=O)(=O)O)c1` the figure was -3.49. Take `CC=CCCCCC`: the logP turned out to be 4.51. Same read-out and setting: as for `Cc1cc(Cl)ccc1OCC(=O)O`, the figure is 3.25; as for `C=CCOCCO`, -0.1.

The series is the same for the next values; noted with them: 20 °C.
`C=CCOC(C)=O` came in with a solubility of 280 mM (≈ 28000 µg/mL). Still for that read-out and setting: with `CC(C)OC(=O)c1ccccc1C(=O)OC(C)C` the figure was 1.33 mM (≈ 332 µg/mL). Still for that read-out and setting: as for `CC1=C(c2ccccc2)C(=O)N(C(C)(C)c2cc(Cl)cc(Cl)c2)CO1`, the figure is 0.000478 mM (≈ 0.18 µg/mL).

Staying with this series, now noted: 23.0 °C.
As for `CCCCOCC(C)O` (centres undefined), the log10 OH rate constant (cm³/molecule/s) is -10.4.

For `CCC(C)OCOC(C)CC` (centres undefined), the log10 OH rate constant (cm³/molecule/s) is -10.4. Turning to `CCOCCOCCO`, the log10 OH rate constant (cm³/molecule/s) was -10.2. On the same count and under the same terms, with `O=C1CC=CO1` the figure was -10.4.

Still in this series, the particulars now being: 24.0 °C.
Compound `c1ccc(Oc2ccccc2)cc1` registered a log10 OH rate constant (cm³/molecule/s) of -11.

Still in this series, the particulars now being: 25 °C.
Compound `CCC1CO1` (centres undefined) displayed a solubility of 1040 mM (≈ 75000 µg/mL).

The compound `CNC(=O)O/N=C/C(C)(C)S(C)=O` (centres undefined) gave a solubility of 136 mM (≈ 28000 µg/mL). On to `CCc1ccccc1O`, for which the solubility was found to be 43.7 mM (≈ 5340 µg/mL). `c1ccc(Oc2ccccc2)cc1` displayed a solubility of 0.106 mM (≈ 18 µg/mL). Same read-out and setting: as for `O=[N+]([O-])c1cc(Cl)ccc1Cl`, the figure is 0.0729 mM (≈ 14 µg/mL); as for `Clc1ccccc1-c1ccccc1`, 0.0256 mM (≈ 4.83 µg/mL); as for `CN(C)C(=O)Nc1ccc(Cl)c(Cl)c1`, 0.18 mM (≈ 42 µg/mL). Same read-out and setting: as for `CCCCCO[N+](=O)[O-]`, the figure is 2.7 mM (≈ 360 µg/mL). Same read-out and setting: with `C#Cc1ccccc1` the figure was 4.46 mM (≈ 456 µg/mL).

The series is the same for the next values; noted with them: 25.0 °C.
The compound `COCC(C)OC` (centres undefined) registered a log10 OH rate constant (cm³/molecule/s) of -10.5. On the same count and under the same terms, as for `C=COC(C)=O`, the figure is -10.6; as for `C=CCOC(C)=O`, -10.6; as for `FC(F)(F)C(F)(F)C(F)(F)C(F)(F)N(C(F)(F)C(F)(F)C(F)(F)C(F)(F)F)C(F)(F)C(F)(F)C(F)(F)C(F)(F)F`, below -16.2. The same measure, in the same setting: with `COC(=O)OC` the figure was -12.5.

The series is the same for the next values; noted with them: 27.0 °C.
Consider `CC(=O)N(C)C`, for which the log10 OH rate constant (cm³/molecule/s) is -10.9.

The same series, now with this note: 30 °C.
The compound `CCOC(=O)CCl` had a solubility of 158 mM (≈ 19400 µg/mL).
